From patent publication US8506926B2, “[18F]-furanosylpurine derivatives and uses thereof” (priority 2003, dated 2013)

Tests used:
[1] = cited from earlier work
[2] = Blood clearance after intravenous injection; assay type: in vivo, athymic nude mice; conditions: blood samples 1-120 minutes after i.v. injection
Description: Activity injected into each mouse was measured in a dose calibrator (Capintec). […] Activity in each blood sample was measured by a gamma counter, standardized for injected dose, and % injected dose per gram was calculated. Mean % injected dose per gram was plotted against time to obtain the blood clearance curve for each compound. Animals were anesthetized with Nembutal (40 mg/kg) and sacrificed at 2 hours post-injection. All organs including tumor were separated and weighed. Radioactivity in each organ was measured using a gamma counter. For each mouse, radioactivity uptake was expressed as % injected dose per gram, and as ratio of organ to blood uptake.

[3] = Micro-PET imaging studies; assay type: in vivo; conditions: for micro-PET image findings: 30 minutes, 1 hour and 2 hours post-injection; for wash out of activity with time (micro-PET): up to 2 hours post-injection
Description: PET imaging was performed using a Micro-PET scanner (Concorde Microsystems, Inc.), with 120 transaxial planes and spatial resolution of 2.0 mm, at 30 minutes, 1 hour and 2 hours post-injection. Images were reconstructed using Ordered Subset Expectation Maximization (OSEM) algorithm.

[4] = mouse, in vivo
[5] = test system: human colon tumor xenografts; conditions: Carson; Takahashi; cited from earlier work
[6] = target: T1, herpes simplex virus thymidine kinase (HSV-tk) (Human herpesvirus 1, UniProt P0DTH5); experiment: Tumor uptake in HSV-tk transduced versus wild type tumors on the same animal; assay type: in vivo; conditions: tumor uptake in transduced and wild type cells comparable
T1 construct: expressed in transfected cells
T1 sequence (P0DTH5 whole entry): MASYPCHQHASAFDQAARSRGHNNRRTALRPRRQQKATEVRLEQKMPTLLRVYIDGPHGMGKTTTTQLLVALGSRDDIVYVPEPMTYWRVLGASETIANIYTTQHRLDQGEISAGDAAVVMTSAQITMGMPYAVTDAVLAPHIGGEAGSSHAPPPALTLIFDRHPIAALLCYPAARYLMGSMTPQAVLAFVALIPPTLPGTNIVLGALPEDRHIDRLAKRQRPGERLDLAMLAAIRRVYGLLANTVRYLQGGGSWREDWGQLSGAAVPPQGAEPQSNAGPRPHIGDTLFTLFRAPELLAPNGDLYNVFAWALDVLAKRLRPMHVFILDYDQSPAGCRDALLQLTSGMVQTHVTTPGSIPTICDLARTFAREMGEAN

Compound	blood clearance pattern [2]	micro-PET image findings [3]	wash out of activity with time (micro-PET) [3]	tissue of highest uptake [4]	further results
Nc1nc(=O)n([C@@H]2O[C@H](CO)[C@@H](O)[C@@H]2F)cc1[125I] [[^125I] labeled FIAC, [^125I]-2′-fluoro-5-iodo-1-β-D-arabinofuranosylcytosine]	–	–	–	–	deiodination in vivo [1]: extensive deiodination in vivo
Nc1ncnc2c1ncn2[C@@H]1O[C@H](CO)[C@H]([18F])[C@H]1O [[^18F]-FXA, 3′-deoxy-3′-[^18F]-fluoro-9-β-D-xylofuranosyladenine]	clear rapidly from the blood initially, then slow down after 20 minutes post-injection	activity is in the heart	did not wash out in 2 hours post-injection	heart	tumor/blood ratio [4]: less than 1
Nc1nc(Cl)nc2c1ncn2[C@@H]1O[C@H](CO)[C@@H](O)[C@@H]1F [2′-deoxy-2′-fluoro-2-chloro-9-β-D-arabinofuranosyladenine]	–	–	–	–	activity against human colon tumor xenografts [5]: active
Nc1ncnc2c1ncn2[C@@H]1O[C@H](CO)[C@@H](O)[C@@H]1[18F] [[^18F]-FAA, 2′-deoxy-2′-[^18F]-fluoro-9-β-D-arabinofuranosyladenine]	clear rapidly from the blood initially, then slow down after 20 minutes post-injection	high uptake in spleen	wash out of activity with time was minimal	spleen	substrate for HSV-tk [6]: not a substrate for HSV-tk; Uptake in kidney [4]: 3.5%; Uptake in liver [4]: 2.4%; tumor uptake compared to the background activity [4]: more than 3 fold; uptake in tumors compared to blood [4]: 3.3 fold
